The results in this text go back to patent publication US20090149417A1, “Methods and compositions for the treatment of cancer using benzopyrone-type PARP inhibitors” (priority 2007, published 2009).

The structures appear in SMILES notation. Read-outs that look alike come from different tables or passages of the source.

By IC50 is commonly meant the concentration at which inhibition is half-maximal.

One data set concerns Colo357FG. Briefly: Luciferase-expressing pancreatic cancer orthotopic nude mouse model. The class given is in vivo. The protocol:
The therapeutic efficacy of IIIg on tumor growth and survival is evaluated in different luciferase-expressing pancreatic cancer orthotopic nude mouse models using an IVIS100 Imaging System, allowing a quantitative real time monitoring of tumor growth.
Mice are monitored daily for signs of toxicity including weight loss, diarrhea, inactivity, and general appearance.
Three days after the orthotopic implantation of 1.0×10^6 COL0357FG tumor cells in 50 μL of HBSS, when bioluminescence imaging confirmed that tumors are well established, in one experiment, mice are randomly allocated into three groups (n=10 mice per group) to receive one of the following treatments. (a) Vehicle solution for 50 μL of sterile saline; (b) IIIg (25 mg/kg) biweekly i.p.; (c) IIIg (100 mg/kg) biweekly i.p. Treatments are continued for 4 weeks. All mice are weighed weekly and observed for tumor growth. Tumor diameter is assessed with a Vernier caliper, and tumor volume (mm^3) is calculated as d^2×D/2, wherein d and D represent the shortest and longest diameters, respectively. Bulky disease is considered present when tumor burden is prominent in the mouse abdomen (tumor volume, >=2,000 mm^3).
In another experiment, mice are randomly allocated into four groups (n=10 mice per group) to receive one of the following treatments. (a) Vehicle solution for 50 μL of sterile saline; (b) IIIg (200 mg/kg) once weekly i.p.; (c) IIIg (100 mg/kg) biweekly i.p; (d) IIIg (40 mg/kg) once daily i.p. Treatments are continued for 4 weeks. All mice are weighed weekly and observed for tumor growth. Tumor diameter is assessed with a Vernier caliper, and tumor volume (mm^3) is calculated as d^2×D/2, wherein d and D represent the shortest and longest diameters, respectively. Bulky disease is considered present when tumor burden is prominent in the mouse abdomen (tumor volume, >=2,000 mm^3).
In another experiment, mice are randomly allocated into eight groups to receive one of the following treatments via oral or ip administration. (a) Vehicle solution for 50 μL of sterile saline (oral); (b) Gemcitabine (25 mg/kg) biweekly for 4 weeks (ip); (c) IIIg (200 mg/kg) once weekly (oral); (d) IIIg (200 mg/kg) biweekly (oral); (e) IIIg (200 mg/kg) once daily (oral); (f) IIIg (400 mg/kg) once weekly (oral); (g) IIIg (400 mg/kg) biweekly (oral); (h) IIIg (400 mg/kg) once daily (oral). In all treatments, IIIg is given orally. Treatments are continued for 4 weeks. All mice are weighed weekly and observed for tumor growth. Tumor diameter is assessed with a Vernier caliper, and tumor volume (mm^3) is calculated as d^2×D/2, wherein d and D represent the shortest and longest diameters, respectively. Bulky disease is considered present when tumor burden is prominent in the mouse abdomen (tumor volume, >=2,000 mm^3).
When at least 6 of 10 mice in a treatment group presented with bulky disease, the median survival duration for that group is considered to be reached. At the median survival duration of the control group, the tumor growth in mice in all groups is evaluated using the bioluminescence emitted by the tumor cells. Bioluminescence imaging is conducted using a cryogenically cooled IVIS 100 imaging system coupled to a data acquisition computer running Living Image software (Xenogen). The mice are sacrificed by carbon dioxide inhalation when evidence of advanced bulky disease is present. The day of sacrifice is considered the day of death for survival evaluation.
Three days after the orthotopic implantation of 1.0×10^6 COL0357FG tumor cells in 50 μL of HBSS, when bioluminescence imaging confirmed that tumors are well established, mice are randomly allocated into four groups to receive one of the following treatments: (a) Vehicle solution for 50 μL of sterile saline; (b) IIIg (400 mg/kg) once daily for 4 weeks [(QD5+R2)×4]; (c) oxaliplatin (10 mg/kg) biweekly for 4 weeks (ip); (d) combination of IIIg (400 mg/kg) once daily for 4 weeks [(QD5+R2)×4] with oxaliplatin (10 mg/kg biweekly, ip). […]

A further data set has as its system PANC-1. Briefly: BrdU chemiluminescent cell proliferation assay. It counts as cell-based, human. Conditions: for IC50: Homo sapiens, PANC-1, 72 h, 72 hour treatment. As for the experimental part: Test Agents—Cells are treated 24 hours after plating (Day 1) with vehicle or test agents at concentrations of 0.1 μM, 0.3 μM, 1 μM, 3 μM, 10 μM, 30 μM and 100 μM.
Tumor Cell Lines—Tumor cell lines (Table 1) are obtained from the American Type Cell Collection (ATCC, Rockville, Md.) or NCI-DCTD Tumor Repository (Bethesda, Md.) and maintained in proper growth media supplemented with 10% fetal bovine serum (FBS, NovaTech), and are maintained in specified growth media. Cells are propagated at 37° C. in a humidified atmosphere containing 5% carbon dioxide.
Cell proliferation assay—Cell proliferation is determined using BrdU chemiluminescent assay, which measures incorporation of 5-bromo-2′-deoxyuridine (BrdU) into the genomic DNA of proliferating cells. Briefly, cells are added with BrdU for 4 hours, during which time it incorporates into the DNA of dividing cells in place of thymidine. Following labeling, cells are fixed and DNA denatured in one step by adding a FixDenat® denaturizing solution. After removing FixDenat, an anti-BrdU-peroxidase conjugated antibody is added, which binds to BrdU incorporated into newly-synthesized cellular DNA. Following antibody incubation, cells are washed 3 times with PBS and subjected to luminescent analysis. The reaction product is quantified by measuring light emission using a scanning multi-well luminometer (luminescence ELISA reader.)
Experimental Design—Tumor cells (Table 1) are grown to 70% confluency, trypsinized, counted and seeded in 96 well flat-bottom plates at final concentrations of 7.5×103-3×10^4 cells/well (Day 0); treatment with IIIg begins on Day 1 and continues for 68 hours (Table 2). Doses for both compounds range between […] and 100 μM. At the 68 hour time point, viable cell number is measured by BrdU assay as described above. Experiments are repeated at least twice at the same doses to determine inhibition of cell proliferation. Results from these studies are used to calculate an IC50 value (drug concentration that results in half-maximal response) for IIIg in each line.
For single studies, data from each experiment is collected and expressed as % Inhibition of Cell Proliferation (% ICP) using the following calculation.
% ICP=100%×[(1−(RLUtest/RLUvehicle)]
Where RLUtest is the relative light unit of the tested sample, and RLUvehicle is the relative light unit of the vehicle in which the drug is dissolved. An IC50 value is calculated from % ICP (PRISM® GraphPad software) using the formula:
y=min+(max−min)/(1+10^(Log(IC50)−x)×Hillslope)
Where (x) is the logarithm of agonist concentration, (y) is the response, and (min) and (max) are the variable lower and upper plateaus, respectively. The variable Hillslope characterizes the slope of the curve at its midpoint. The IC50 is the drug concentration for y halfway between min and max.

Setting [1] is: intraperitoneal injection, 200 mg/kg QW×4.
[2] abbreviates: oral, 400 mg/kg [QD5+R2]×4, compared to no treatment and standard gemcitabine treatment.

Take `O=c1ccc2c(I)c([N+](=O)[O-])ccc2o1` [IIIg, 5-iodo-6-nitro-benzopyrone]: in the data set on Colo357FG (100 mg/kg/day 2/week×4 weeks), the Signs of toxicity entry was “without signs of toxicity”. The Survival result in the data set with Colo357FG (100 mg/kg/day 2/week×4 weeks) is “prolongs survival”; in the data set with Colo357FG (setting [1]), “prolongs the survival”; in the data set with Colo357FG (setting [2]), “prolongs survival”. For the same compound, the Tumor burden result in the data set on Colo357FG (100 mg/kg/day 2/week×4 weeks) is “significantly reduces the tumor burden”; in the data set with Colo357FG (setting [1]), “potently reduces the tumor burden”; in the data set on Colo357FG (setting [2]), “significantly reduces the tumor burden”. Further, the “In vivo antitumor effect, comparison of schedules” value in the data set on Colo357FG (200 mg/kg/week once a week in comparison with 2 times/week or daily schedule, preliminary results) is listed as “greater in vivo antitumor effect”. Further, in the data set with Colo357FG (IIIg 400 mg/kg once daily [(QD5+R2)×4] with oxaliplatin 10 mg/kg biweekly, ip), the “Anti-tumor activity of the combination” value is recorded as “potent synergistic anti-tumor activity”. In addition, the half-inhibitory concentration (IC50) in the data set on PANC-1 (Exp1, read-out: IC50) was 22 µM; in the data set with PANC-1 (Exp2, read-out: IC50), 27 µM; in the data set with PANC-1 (mean of Exp1 and Exp2, read-out: Mean IC50), 24.5 µM. For the same compound, in the data set with PANC-1 (Max Concentration 100 μM), the “Mean Maximum % Response” value worked out at 99%.
